From article PMC5862592, “CDK8/19 inhibition induces premature G1/S transition and ATR-dependent cell death in prostate cancer cells” (Oncotarget, 2018)
Where two headings read alike, the source gives them in different places.

Assays:
Assay in all cases: biochemical
Set-up in all cases: KINOMEscan active site-directed competition binding assay (DiscoveRx), 456 kinases, per cent of control at 300 nM
Settings in all cases: read-out: Percent of Control (%)
CSNK1D = CSNK1D (Homo sapiens, UniProt P48730)
Description: (§1) Kinase selectivity of T-474 and T-418 was evaluated at 300 nmol/L using a panel of 456 kinases at DiscoveRx (KINOMEscan). The platform employs an active site-directed competition binding assay to quantitatively measure interactions between test compounds and kinases. […] In VCaP prostate cancer cells, treatment with T-474 or T-418 suppressed the phosphorylation of the known CDK8 substrate STAT1 at Ser727 both in the absence and in the presence of IFN-γ (Figure 1B), which stimulates CDK8-mediated STAT1 phosphorylation.

CDK3 = CDK3 (Homo sapiens, UniProt Q00526)
Description: as §1

ALK(C1156Y) = ALK(C1156Y) (Homo sapiens, UniProt Q9UM73, C1156Y)
Description: as §1

PLK2 = PLK2 (Homo sapiens, UniProt Q9NYY3)
Description: as §1

JNK1 = molecular target: T1, JNK1 (Homo sapiens, UniProt P45983)
T1 construct: gene MAPK8
Description: as §1

FGFR3 = FGFR3 (Homo sapiens, UniProt P22607)
Description: as §1

AURKB = AURKB (Homo sapiens, UniProt Q96GD4)
Description: as §1

MRCKA = molecular target: T2, MRCKA (Homo sapiens, UniProt Q5VT25)
T2 construct: gene CDC42BPA
Description: as §1

ERK3 = molecular target: T3, ERK3 (Homo sapiens, UniProt Q16659)
T3 construct: gene MAPK6
Description: as §1

MEK5 = molecular target: T4, MEK5 (Homo sapiens, UniProt Q13163)
T4 construct: gene MAP2K5
Description: as §1

MUSK = MUSK (Homo sapiens, UniProt O15146)
Description: as §1

CDK11 = molecular target: T5, CDK11 (Homo sapiens, UniProt Q9BWU1)
T5 construct: gene CDK19
Description: as §1

PLK1 = PLK1 (Homo sapiens, UniProt P53350)
Description: as §1

CSNK1G1 = CSNK1G1 (Homo sapiens, UniProt Q9HCP0)
Description: as §1

SRPK3 = SRPK3 (Homo sapiens, UniProt Q9UPE1)
Description: as §1

MAP3K3 = MAP3K3 (Homo sapiens, UniProt Q99759)
Description: as §1

PDGFRB = PDGFRB (Homo sapiens, UniProt P09619)
Description: as §1

FLT3-autoinhibited = FLT3-autoinhibited (Homo sapiens, UniProt P36888)
Description: as §1

[1] = molecular target: T6, ABL1(F317I)-nonphosphorylated (Homo sapiens, UniProt P00519, F317I)
T6 construct: nonphosphorylated
Description: as §1

CSNK1A1L = CSNK1A1L (Homo sapiens, UniProt Q8N752)
Description: as §1

FYN = FYN (Homo sapiens, UniProt P06241)
Description: as §1

LIMK1 = LIMK1 (Homo sapiens, UniProt P53667)
Description: as §1

Chain of CSNK1D (P48730 whole entry): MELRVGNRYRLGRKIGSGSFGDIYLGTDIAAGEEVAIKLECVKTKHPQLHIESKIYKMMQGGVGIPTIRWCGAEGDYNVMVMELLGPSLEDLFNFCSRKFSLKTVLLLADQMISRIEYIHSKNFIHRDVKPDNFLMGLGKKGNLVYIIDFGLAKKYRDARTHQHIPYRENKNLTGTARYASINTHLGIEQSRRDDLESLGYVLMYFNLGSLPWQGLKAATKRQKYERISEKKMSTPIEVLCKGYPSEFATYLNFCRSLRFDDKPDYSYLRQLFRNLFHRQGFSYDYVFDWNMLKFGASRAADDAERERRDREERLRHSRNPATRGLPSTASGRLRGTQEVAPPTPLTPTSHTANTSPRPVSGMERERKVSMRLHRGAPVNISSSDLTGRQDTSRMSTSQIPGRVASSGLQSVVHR
Chain of SRPK3 (Q9UPE1 whole entry): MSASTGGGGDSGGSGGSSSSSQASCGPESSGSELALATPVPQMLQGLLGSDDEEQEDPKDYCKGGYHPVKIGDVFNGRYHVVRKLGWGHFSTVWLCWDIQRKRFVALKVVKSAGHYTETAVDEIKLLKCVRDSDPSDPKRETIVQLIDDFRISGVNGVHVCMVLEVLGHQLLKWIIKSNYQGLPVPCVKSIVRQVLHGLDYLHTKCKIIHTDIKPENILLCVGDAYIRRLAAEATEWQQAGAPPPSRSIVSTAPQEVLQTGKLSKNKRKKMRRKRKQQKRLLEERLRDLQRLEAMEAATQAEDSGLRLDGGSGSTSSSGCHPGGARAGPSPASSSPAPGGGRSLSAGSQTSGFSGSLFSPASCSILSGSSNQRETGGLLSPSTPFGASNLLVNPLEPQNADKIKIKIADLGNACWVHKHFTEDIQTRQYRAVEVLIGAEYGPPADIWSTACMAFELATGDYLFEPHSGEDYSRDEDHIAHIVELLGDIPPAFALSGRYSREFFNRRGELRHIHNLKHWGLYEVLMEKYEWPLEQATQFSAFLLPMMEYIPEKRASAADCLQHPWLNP
T3 sequence (Q16659 whole entry): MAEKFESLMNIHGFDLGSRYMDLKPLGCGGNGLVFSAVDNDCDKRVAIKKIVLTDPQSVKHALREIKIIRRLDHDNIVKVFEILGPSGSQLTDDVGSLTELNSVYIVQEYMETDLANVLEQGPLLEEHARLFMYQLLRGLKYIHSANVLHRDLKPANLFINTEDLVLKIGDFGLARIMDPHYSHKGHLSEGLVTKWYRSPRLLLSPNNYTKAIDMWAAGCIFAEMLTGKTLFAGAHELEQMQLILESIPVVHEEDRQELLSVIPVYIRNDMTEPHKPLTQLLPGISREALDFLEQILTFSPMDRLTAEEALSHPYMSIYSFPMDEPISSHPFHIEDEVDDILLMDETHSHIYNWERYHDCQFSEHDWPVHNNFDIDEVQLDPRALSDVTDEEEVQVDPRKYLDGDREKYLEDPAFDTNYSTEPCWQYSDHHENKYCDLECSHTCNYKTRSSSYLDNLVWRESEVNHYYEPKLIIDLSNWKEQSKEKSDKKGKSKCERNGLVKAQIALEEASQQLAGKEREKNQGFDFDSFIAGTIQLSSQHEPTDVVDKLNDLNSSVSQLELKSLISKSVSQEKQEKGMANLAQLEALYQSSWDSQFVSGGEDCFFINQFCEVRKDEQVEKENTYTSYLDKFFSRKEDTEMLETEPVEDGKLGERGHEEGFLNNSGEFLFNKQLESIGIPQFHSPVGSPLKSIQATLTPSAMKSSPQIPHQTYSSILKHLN
Chain of PLK2 (Q9NYY3 whole entry): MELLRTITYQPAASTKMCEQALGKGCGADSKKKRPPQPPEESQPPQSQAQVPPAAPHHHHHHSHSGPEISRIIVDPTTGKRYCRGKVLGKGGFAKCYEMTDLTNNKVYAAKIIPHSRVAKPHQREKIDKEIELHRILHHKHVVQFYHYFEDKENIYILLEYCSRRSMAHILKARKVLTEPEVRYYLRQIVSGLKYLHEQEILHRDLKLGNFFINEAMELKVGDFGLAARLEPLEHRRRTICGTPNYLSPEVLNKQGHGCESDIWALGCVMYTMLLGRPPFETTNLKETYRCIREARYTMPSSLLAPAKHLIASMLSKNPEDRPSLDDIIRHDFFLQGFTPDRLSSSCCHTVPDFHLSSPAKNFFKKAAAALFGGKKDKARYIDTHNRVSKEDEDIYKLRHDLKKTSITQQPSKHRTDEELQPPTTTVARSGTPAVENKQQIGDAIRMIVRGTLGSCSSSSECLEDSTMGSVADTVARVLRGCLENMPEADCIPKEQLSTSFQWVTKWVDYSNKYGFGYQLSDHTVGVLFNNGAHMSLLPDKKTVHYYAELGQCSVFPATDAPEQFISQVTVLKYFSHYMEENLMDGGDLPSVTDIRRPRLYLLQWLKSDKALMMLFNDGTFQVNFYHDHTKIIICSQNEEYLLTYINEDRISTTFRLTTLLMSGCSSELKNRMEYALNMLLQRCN
Chain of PLK1 (P53350 whole entry): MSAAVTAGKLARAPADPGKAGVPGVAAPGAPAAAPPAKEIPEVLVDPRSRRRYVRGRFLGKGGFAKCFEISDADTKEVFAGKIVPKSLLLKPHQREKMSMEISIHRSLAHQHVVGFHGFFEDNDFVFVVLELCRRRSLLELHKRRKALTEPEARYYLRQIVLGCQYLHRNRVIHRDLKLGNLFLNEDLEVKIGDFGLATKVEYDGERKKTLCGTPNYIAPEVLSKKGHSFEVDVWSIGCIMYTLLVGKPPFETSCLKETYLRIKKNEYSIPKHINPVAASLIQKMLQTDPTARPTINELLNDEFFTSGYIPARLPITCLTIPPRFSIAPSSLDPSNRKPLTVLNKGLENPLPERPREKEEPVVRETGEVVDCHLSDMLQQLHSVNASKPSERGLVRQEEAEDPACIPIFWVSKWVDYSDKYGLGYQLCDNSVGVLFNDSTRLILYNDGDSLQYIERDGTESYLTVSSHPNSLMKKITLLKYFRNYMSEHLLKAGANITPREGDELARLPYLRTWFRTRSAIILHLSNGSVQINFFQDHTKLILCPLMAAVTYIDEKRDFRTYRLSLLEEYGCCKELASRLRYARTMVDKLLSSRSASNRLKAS
T4 sequence (Q13163 whole entry): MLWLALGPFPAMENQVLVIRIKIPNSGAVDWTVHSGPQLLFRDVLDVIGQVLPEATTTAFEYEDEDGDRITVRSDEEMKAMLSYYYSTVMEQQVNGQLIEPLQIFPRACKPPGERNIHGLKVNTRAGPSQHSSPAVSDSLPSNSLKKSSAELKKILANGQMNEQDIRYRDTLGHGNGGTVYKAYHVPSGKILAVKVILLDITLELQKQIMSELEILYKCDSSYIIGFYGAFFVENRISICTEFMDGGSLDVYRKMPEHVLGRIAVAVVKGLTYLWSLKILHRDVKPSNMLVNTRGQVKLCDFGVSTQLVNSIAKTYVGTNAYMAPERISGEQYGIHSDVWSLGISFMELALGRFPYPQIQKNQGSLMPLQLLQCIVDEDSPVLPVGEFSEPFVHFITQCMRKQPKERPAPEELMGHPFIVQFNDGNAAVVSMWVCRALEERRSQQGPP
T1 sequence (P45983 whole entry): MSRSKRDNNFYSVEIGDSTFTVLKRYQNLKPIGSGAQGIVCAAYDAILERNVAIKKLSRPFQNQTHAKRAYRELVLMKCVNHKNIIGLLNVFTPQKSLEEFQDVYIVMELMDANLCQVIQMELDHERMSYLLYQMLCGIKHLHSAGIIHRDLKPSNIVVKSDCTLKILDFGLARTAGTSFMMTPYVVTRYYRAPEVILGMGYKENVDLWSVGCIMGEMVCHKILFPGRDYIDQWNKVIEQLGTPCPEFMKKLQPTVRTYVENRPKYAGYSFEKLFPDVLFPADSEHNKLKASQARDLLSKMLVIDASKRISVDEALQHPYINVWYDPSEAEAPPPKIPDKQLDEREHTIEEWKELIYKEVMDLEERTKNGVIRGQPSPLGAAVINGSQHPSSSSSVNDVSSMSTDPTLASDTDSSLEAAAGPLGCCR
Chain of FLT3-autoinhibited (P36888 whole entry): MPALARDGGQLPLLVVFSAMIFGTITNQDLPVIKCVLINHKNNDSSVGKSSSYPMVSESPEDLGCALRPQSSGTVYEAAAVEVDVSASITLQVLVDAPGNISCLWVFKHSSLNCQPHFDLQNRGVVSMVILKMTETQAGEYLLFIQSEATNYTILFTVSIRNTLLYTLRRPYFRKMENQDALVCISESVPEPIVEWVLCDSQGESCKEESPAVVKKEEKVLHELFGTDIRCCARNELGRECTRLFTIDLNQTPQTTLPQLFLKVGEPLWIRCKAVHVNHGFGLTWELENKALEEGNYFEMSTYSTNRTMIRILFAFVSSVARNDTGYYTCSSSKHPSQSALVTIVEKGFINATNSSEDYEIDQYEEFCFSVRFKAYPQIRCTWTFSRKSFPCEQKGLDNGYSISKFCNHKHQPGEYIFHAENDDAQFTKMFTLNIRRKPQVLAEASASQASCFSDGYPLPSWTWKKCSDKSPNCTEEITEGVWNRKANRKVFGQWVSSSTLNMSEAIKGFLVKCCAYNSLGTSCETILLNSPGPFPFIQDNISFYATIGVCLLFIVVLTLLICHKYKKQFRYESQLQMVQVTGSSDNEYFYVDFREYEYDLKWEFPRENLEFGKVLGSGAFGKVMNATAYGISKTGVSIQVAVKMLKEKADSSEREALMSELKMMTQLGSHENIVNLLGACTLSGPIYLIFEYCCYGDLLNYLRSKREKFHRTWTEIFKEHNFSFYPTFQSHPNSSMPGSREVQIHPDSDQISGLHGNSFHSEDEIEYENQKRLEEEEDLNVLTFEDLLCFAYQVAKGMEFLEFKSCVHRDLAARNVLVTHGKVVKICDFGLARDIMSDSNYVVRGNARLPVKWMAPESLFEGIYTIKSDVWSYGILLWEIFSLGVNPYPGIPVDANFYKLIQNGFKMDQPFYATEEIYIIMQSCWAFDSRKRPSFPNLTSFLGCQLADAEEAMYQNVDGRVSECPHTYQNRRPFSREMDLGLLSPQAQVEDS

O=C(/C=C/c1cnccc1-c1ccc(F)cc1)Nc1ccc(CCc2nnco2)cc1 [T-418, (2E)-3-(4-(4-fluorophenyl)pyridin-3-yl)-N-(4-(2-(1,3,4-oxadiazol-2-yl)ethyl)phenyl)acrylamide]
remaining binding at 0.3 µM (CSNK1D; sheet T-418): 84% | remaining binding at 0.3 µM (CDK3; sheet T-418): 95% | remaining binding at 0.3 µM (ALK(C1156Y); sheet T-418): 91% | remaining binding at 0.3 µM (PLK2; sheet T-418): 57% | remaining binding at 0.3 µM (JNK1; sheet T-418): 90% | remaining binding at 0.3 µM (FGFR3; sheet T-418): 100% | remaining binding at 0.3 µM (AURKB; sheet T-418): 100% | remaining binding at 0.3 µM (MRCKA; sheet T-418): 100% | remaining binding at 0.3 µM (ERK3; sheet T-418): 68% | remaining binding at 0.3 µM (MEK5; sheet T-418): 100% | remaining binding at 0.3 µM (MUSK; sheet T-418): 100% | remaining binding at 0.3 µM (CDK11; sheet T-418): 6.4% | remaining binding at 0.3 µM (PLK1; sheet T-418): 100% | remaining binding at 0.3 µM (CSNK1G1; sheet T-418): 97% | remaining binding at 0.3 µM (SRPK3; sheet T-418): 100% | remaining binding at 0.3 µM (MAP3K3; sheet T-418): 94% | remaining binding at 0.3 µM (PDGFRB; sheet T-418): 100% | remaining binding at 0.3 µM (FLT3-autoinhibited; sheet T-418): 89% | remaining binding at 0.3 µM ([1]; sheet T-418): 100% | remaining binding at 0.3 µM (CSNK1A1L; sheet T-418): 92% | remaining binding at 0.3 µM (FYN; sheet T-418): 100% | remaining binding at 0.3 µM (LIMK1; sheet T-418): 100%

Cc1ncccc1Oc1sc(C(N)=O)c2c1-c1c(cnn1C)CC2 [T-474, 1-methyl-8-((2-methylpyridin-3-yl)oxy)-4,5-dihydro-1H-thieno[3,4-g]indazole-6-carboxamide]
remaining binding at 0.3 µM (CSNK1D): 61% | remaining binding at 0.3 µM (CDK3): 100% | remaining binding at 0.3 µM (ALK(C1156Y)): 98% | remaining binding at 0.3 µM (PLK2): 67% | remaining binding at 0.3 µM (JNK1): 87% | remaining binding at 0.3 µM (FGFR3): 97% | remaining binding at 0.3 µM (AURKB): 100% | remaining binding at 0.3 µM (MRCKA): 100% | remaining binding at 0.3 µM (ERK3): 78% | remaining binding at 0.3 µM (MEK5): 100% | remaining binding at 0.3 µM (MUSK): 100% | remaining binding at 0.3 µM (CDK11): 1.1% | remaining binding at 0.3 µM (PLK1): 100% | remaining binding at 0.3 µM (CSNK1G1): 79% | remaining binding at 0.3 µM (SRPK3): 100% | remaining binding at 0.3 µM (MAP3K3): 100% | remaining binding at 0.3 µM (PDGFRB): 100% | remaining binding at 0.3 µM (FLT3-autoinhibited): 78% | remaining binding at 0.3 µM [1]: 100% | remaining binding at 0.3 µM (CSNK1A1L): 100% | remaining binding at 0.3 µM (FYN): 100% | remaining binding at 0.3 µM (LIMK1): 100%
